Assay results reported in ChEMBL document CHEMBL1201862, “PubChem BioAssay data set” (2004).
One block for each molecule: values may come before it. Calls of active or inactive are those of the source.

How the values were obtained:
[1] = target: T1, Tyrosine-protein phosphatase non-receptor type 22 (Homo sapiens, UniProt Q9Y2R2); assay: SAR LYP1 Fluorescent Assay using pCAP substrate for In Vitro dose response studies - Set 2. [Related pubchem assays (depositor defined):AID1779, AID1784, AID2135, AID449727]; assay type: functional
T1 sequence (Q9Y2R2 whole entry): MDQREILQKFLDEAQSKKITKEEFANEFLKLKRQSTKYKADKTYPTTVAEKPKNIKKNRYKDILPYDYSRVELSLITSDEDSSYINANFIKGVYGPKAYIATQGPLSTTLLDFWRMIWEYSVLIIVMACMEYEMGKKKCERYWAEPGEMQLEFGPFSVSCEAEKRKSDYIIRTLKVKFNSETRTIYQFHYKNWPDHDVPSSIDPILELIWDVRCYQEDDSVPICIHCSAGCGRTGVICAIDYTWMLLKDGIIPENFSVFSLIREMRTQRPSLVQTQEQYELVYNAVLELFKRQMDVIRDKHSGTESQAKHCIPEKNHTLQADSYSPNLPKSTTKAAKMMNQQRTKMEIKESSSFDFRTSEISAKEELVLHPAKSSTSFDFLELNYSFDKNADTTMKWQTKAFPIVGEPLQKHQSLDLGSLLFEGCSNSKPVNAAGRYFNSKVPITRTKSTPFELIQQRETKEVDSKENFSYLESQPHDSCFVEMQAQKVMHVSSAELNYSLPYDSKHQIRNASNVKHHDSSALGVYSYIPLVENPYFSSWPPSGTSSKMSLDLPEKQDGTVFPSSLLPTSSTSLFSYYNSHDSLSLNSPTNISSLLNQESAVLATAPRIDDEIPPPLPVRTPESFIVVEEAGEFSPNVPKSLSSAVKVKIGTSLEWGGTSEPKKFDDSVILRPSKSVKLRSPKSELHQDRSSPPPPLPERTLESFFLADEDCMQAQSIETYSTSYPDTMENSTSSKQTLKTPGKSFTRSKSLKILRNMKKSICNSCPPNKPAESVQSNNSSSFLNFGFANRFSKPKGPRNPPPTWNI

[2] = target: Tyrosine-protein phosphatase non-receptor type 12 (Homo sapiens, UniProt Q05209); assay: SAR Selectivity Analysis of small molecule inhibitors of PEST using pCAP in a fluorescence assay. [Related pubchem assays (depositor defined):AID1779, AID1784, AID2135]; assay type: functional
[3] = target: T1, Tyrosine-protein phosphatase non-receptor type 22; assay: SAR LYP1 Fluorescent Assay using OMFP substrate for In Vitro dose response studies - Set 3. [Related pubchem assays (depositor defined):AID1779, AID1784, AID2140, AID2686]; assay type: functional
[4] = target: T2, Tyrosine-protein phosphatase non-receptor type 7 (Homo sapiens, UniProt P35236); assay: HePTP (PTPN7) phosphatase inhibitor potency, SAR follow-up, biochemical, set 2 (AID 449736); assay type: functional
T2 sequence (P35236 whole entry): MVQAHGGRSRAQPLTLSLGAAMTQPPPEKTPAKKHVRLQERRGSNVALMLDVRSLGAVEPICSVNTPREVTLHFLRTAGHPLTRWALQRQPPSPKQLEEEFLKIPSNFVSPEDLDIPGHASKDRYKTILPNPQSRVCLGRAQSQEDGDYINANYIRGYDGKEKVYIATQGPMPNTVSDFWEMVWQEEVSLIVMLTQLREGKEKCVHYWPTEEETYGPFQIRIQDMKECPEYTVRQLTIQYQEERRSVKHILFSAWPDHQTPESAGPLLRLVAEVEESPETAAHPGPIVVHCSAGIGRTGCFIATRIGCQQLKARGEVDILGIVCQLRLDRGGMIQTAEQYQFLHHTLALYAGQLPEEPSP

[5] = target: T1, Tyrosine-protein phosphatase non-receptor type 22; assay: LYP (PTPN22) phosphatase inhibitor potency, SAR follow-up, biochemical, pCAP fluorogenic substrate, fluorescence, set 3 (AID 449727); assay type: functional
[6] = target: T1, Tyrosine-protein phosphatase non-receptor type 22; assay: SAR LYP1 Fluorescent Assay using OMFP substrate for In Vitro dose response studies - Set 2. [Related pubchem assays (depositor defined):AID1779, AID1784, AID2140, AID449726, AID488869]; assay type: functional
[7] = target: T3, Delta-type opioid receptor (Homo sapiens, UniProt P41143); assay: HTS Image-Based Screen for Antagonists of the DOR Receptor. [Related pubchem assays (depositor defined):AID1777, AID1785, AID1786, AID2133]; assay type: functional
[8] = target: T4, Mu-type opioid receptor (Homo sapiens, UniProt P35372); assay: HTS Image-Based Screen for Agonists of the MOR Receptor. [Related pubchem assays (depositor defined):AID1777, AID1785, AID1786, AID2133]; assay type: functional
[9] = target: T3, Delta-type opioid receptor; assay: HTS Image-Based Screen for Agonists of the DOR Receptor. [Related pubchem assays (depositor defined):AID1777, AID1786, AID2133]; assay type: functional
[10] = target: T5, Kappa-type opioid receptor (Homo sapiens, UniProt P41145); assay type: functional
[11] = target: T5, Kappa-type opioid receptor; assay type: functional; remark: listed apart in the source
[12] = target: T5, Kappa-type opioid receptor; assay: SAR analysis of small molecule agonists of the kappa opioid receptor via a luminescent beta-arrestin assay. [Related pubchem assays (depositor defined):AID1777, AID1786, AID1966, AID2133, AID2136, AID2348, AID2352, AID2357, AID2359, AID2370, AID2420, AID2478, AID2491, AID2492, AID2493, AID2497, AID2498, AID2500, AID449737, AID488822, AID488842]; assay type: functional
[13] = target: T4, Mu-type opioid receptor; assay: MOR agonists by imaging, SAR follow-up, image-based (AID 2352); assay type: functional
[14] = target: T3, Delta-type opioid receptor; assay: DOR agonists, SAR follow-up, image-based (AID 2370); assay type: functional
[15] = target: T5, Kappa-type opioid receptor; assay: KOR antagonists by imaging, SAR follow-up, image-based (AID 2348); assay type: functional
[16] = target: T4, Mu-type opioid receptor; assay: MOR antagonists, SAR follow-up, image-based (AID 2420); assay type: functional;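 further: compounds added before stimulation of receptor with agonist DAMGO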
[17] = target: T5, Kappa-type opioid receptor; assay: KOR agonist analogs, imaging readout, SAR follow-up, image-based (AID 2359); assay type: functional
[18] = target: T3, Delta-type opioid receptor; assay: DOR antagonists, SAR follow-up, image-based (AID 2357); assay type: functional
[19] = target: Peroxisome proliferator-activated receptor gamma/Nuclear receptor coactivator 1 (Homo sapiens, UniProt P37231); assay: (§1) TR-FRET dose response biochemical High Throughput Screening assay for agonists of the steroid receptor coactivator 1 (SRC-1) recruitment by the peroxisome proliferator-activated receptor gamma (PPAR gamma): non-selective agonists. [Related pubchem assays (depositor defined):AID1300, AID1808, AID504735, AID631]; assay type: protein assay
[20] = target: Peroxisome proliferator-activated receptor gamma/Nuclear receptor coactivator 3 (Homo sapiens, UniProt P37231); assay: as §1, with “3 (SRC-3)” for “1 (SRC-1)”, “assays: 1301 (Confirmation screen.), 1048 (Primary screen.)]” for “assays (depositor defined):AID1300, AID1808, AID504735, AID631]”; assay type: functional
[21] = target: Peroxisome proliferator-activated receptor gamma/Nuclear receptor coactivator 2 (Homo sapiens, UniProt P37231); assay: TR-FRET dose response biochemical High Throughput Screening assay for agonists of the steroid receptor coactivator 2 (SRC-2) recruitment by the peroxisome proliferator-activated receptor gamma (PPAR gamma): non-selective agonists. [Related pubchem assays: 1297, 1032 ]; assay type: functional
Chain of Peroxisome proliferator-activated receptor gamma/Nuclear receptor coactivator 2 (P37231 whole entry): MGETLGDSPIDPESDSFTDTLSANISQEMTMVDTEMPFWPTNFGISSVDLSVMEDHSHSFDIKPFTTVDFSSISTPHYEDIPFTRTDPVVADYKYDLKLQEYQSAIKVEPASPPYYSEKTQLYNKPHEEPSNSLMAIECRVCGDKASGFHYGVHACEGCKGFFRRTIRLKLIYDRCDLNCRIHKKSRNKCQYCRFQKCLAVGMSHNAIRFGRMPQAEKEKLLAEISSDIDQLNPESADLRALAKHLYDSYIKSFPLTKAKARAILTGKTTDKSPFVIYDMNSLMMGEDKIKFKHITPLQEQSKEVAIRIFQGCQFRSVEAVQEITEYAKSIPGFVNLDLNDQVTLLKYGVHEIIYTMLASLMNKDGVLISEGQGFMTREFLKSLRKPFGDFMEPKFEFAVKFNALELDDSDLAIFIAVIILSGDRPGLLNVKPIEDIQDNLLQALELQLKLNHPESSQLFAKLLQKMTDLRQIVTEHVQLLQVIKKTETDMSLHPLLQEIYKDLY
Chain of Peroxisome proliferator-activated receptor gamma/Nuclear receptor coactivator 2 (Q15596 whole entry, further chain): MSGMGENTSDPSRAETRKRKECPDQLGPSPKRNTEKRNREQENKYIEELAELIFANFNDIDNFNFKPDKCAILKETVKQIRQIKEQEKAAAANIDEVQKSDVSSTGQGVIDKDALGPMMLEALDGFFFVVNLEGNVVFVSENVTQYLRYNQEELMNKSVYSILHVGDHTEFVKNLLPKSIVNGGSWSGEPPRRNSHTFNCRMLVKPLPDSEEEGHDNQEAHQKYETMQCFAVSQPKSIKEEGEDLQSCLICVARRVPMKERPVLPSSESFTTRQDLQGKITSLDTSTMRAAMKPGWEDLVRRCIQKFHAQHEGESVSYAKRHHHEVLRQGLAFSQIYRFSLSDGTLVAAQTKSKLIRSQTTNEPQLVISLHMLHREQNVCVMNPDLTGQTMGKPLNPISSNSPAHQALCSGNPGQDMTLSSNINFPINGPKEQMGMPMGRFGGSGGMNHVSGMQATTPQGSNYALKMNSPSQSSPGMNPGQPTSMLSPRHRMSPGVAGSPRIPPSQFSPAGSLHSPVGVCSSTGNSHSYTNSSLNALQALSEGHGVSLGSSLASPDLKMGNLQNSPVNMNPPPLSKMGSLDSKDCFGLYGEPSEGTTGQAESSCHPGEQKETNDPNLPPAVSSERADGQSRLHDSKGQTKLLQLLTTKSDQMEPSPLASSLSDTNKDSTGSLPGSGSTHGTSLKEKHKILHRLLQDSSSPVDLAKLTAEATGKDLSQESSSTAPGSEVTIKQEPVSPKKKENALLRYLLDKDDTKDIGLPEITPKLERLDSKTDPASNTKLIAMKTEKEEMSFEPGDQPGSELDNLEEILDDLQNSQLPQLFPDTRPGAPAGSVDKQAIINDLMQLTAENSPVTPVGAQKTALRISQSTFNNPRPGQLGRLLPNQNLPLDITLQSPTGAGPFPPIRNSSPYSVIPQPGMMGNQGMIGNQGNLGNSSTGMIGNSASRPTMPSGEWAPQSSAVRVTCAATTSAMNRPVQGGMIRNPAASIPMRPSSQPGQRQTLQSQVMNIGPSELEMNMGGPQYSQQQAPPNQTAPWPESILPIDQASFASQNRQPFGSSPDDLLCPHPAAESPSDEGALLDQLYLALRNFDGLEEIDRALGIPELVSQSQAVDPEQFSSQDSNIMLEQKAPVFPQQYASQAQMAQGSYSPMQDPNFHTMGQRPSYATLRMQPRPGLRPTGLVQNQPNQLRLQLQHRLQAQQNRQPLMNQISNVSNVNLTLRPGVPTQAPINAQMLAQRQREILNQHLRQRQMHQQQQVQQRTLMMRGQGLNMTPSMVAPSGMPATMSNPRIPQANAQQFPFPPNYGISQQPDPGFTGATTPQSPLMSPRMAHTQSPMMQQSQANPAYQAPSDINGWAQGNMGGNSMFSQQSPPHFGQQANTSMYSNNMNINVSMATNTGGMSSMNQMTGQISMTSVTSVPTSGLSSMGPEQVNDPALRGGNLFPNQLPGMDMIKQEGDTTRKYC

T4 sequence (P35372 whole entry): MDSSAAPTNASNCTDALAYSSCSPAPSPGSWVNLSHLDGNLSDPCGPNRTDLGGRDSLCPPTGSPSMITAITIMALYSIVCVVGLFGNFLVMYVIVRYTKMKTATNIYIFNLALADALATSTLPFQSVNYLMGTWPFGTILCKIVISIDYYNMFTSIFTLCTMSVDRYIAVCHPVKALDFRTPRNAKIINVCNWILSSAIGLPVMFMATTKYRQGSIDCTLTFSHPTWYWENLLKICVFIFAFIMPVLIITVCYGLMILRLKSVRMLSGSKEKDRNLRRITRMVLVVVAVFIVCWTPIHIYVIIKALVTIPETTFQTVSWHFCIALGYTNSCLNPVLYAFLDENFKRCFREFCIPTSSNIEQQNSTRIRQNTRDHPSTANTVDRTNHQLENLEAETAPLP
T3 sequence (P41143 whole entry): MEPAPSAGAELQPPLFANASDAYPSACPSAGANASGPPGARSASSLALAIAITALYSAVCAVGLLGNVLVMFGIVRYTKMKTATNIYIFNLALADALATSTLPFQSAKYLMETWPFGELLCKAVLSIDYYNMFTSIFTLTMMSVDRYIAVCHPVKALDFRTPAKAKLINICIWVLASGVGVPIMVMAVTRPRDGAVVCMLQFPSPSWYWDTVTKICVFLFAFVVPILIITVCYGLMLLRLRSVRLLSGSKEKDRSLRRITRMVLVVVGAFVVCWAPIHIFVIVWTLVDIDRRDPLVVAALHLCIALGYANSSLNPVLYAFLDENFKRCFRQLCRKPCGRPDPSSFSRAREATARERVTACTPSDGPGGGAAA
T5 sequence (P41145 whole entry): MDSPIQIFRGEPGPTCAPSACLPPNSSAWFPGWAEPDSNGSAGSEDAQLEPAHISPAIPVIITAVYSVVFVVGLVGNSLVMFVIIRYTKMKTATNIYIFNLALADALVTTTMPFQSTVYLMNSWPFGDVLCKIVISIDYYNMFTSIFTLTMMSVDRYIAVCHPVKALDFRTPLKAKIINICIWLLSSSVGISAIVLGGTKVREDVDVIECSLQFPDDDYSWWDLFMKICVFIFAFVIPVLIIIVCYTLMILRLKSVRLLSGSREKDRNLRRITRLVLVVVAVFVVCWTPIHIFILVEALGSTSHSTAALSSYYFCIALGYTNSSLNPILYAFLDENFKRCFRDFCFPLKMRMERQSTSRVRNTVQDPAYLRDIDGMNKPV
Chain of Peroxisome proliferator-activated receptor gamma/Nuclear receptor coactivator 1 (P37231 whole entry): as the sequence (P37231 whole entry) above
Chain of Peroxisome proliferator-activated receptor gamma/Nuclear receptor coactivator 1 (Q15788 whole entry, further chain): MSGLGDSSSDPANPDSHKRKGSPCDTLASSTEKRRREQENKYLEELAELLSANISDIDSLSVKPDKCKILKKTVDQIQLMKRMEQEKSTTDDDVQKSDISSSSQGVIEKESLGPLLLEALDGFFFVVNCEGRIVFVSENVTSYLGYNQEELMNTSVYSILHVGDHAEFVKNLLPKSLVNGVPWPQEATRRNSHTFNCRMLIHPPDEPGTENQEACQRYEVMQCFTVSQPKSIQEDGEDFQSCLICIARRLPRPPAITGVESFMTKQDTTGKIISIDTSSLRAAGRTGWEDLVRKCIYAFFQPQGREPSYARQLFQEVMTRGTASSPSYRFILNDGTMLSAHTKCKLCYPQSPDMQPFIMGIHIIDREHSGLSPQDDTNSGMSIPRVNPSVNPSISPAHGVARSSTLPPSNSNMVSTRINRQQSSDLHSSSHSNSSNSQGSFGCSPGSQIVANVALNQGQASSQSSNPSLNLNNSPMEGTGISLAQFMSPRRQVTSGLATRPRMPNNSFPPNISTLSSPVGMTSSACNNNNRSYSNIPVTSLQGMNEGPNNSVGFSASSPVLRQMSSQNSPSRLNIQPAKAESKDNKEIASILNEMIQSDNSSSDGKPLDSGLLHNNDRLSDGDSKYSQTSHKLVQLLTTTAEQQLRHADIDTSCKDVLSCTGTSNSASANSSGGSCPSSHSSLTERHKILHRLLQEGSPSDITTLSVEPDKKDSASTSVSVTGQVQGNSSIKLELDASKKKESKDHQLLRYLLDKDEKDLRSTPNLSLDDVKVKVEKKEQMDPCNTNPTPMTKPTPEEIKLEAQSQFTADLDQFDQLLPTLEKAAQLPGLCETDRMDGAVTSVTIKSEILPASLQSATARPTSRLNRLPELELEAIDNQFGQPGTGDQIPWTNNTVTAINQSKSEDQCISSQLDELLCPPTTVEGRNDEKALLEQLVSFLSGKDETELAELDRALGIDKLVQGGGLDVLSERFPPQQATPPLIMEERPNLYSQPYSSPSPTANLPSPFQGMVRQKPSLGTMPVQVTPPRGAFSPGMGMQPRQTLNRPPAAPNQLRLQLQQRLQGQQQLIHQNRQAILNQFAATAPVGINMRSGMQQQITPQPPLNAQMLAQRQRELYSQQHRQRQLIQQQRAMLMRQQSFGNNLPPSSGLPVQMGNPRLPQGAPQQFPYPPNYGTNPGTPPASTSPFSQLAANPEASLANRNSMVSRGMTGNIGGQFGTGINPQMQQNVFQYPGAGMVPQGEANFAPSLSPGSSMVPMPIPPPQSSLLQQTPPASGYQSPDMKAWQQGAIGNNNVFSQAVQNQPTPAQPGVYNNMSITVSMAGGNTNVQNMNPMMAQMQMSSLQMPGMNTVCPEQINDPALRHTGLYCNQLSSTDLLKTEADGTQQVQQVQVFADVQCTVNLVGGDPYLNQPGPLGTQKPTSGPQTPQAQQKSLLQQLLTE

IC50 [1]: > 100 µM (inactive)
IC50 [2]: > 100 µM (inactive)
IC50 [3]: > 100 µM (inactive)
IC50 [4]: > 100 µM (inactive)
IC50 [5]: > 100 µM (inactive)
IC50 [6]: > 100 µM (inactive)
Compound: O=C(O)COc1ccc(NC(=O)c2ccco2)cc1

IC50 [7]: > 32 µM (inactive)
EC50 [8]: > 32 µM (inactive)
EC50 [9]: > 32 µM (inactive)
EC50 [10]: 1.94 µM
EC50 [11]: 4.19 µM
EC50 [12]: 4.05 µM (active)
EC50 [13]: > 32 µM (inactive)
EC50 [14]: > 32 µM (inactive)
IC50 [15]: > 32 µM (inactive)
IC50 [16]: > 32 µM (inactive)
EC50 [17]: 1.11 µM (active)
IC50 [18]: > 32 µM (inactive)
Compound: Cc1cccc(C)c1NC(=O)C1(N(Cc2ccco2)C(=O)c2ccccn2)CCCC1

EC50 [19]: 16.2 µM (inactive)
EC50 [20]: > 79.4 µM (not active)
EC50 [21]: 18.7 µM (not active)
Compound: C#CCn1/c(=N/C(=O)c2sc3ccccc3c2Cl)sc2cc(S(N)(=O)=O)ccc21
